Measured values: PMC3907537, “Evaluation of the Endothelin Receptor Antagonists Ambrisentan, Bosentan, Macitentan, and Sitaxsentan as Hepatobiliary Transporter Inhibitors and Substrates in Sandwich-Cultured Human Hepatocytes” (PLoS ONE, 2014)
Values joined by “and” are separate entries in the source; they are usually repeats but may differ in a detail not shown here. Equal values may be shown once.

Legend:
[1] = test system: sandwich-cultured human hepatocytes; test: Hepatic disposition (intracellular accumulation) of ERAs in sandwich-cultured human hepatocytes; type: in vitro ADME; conditions: sandwich-cultured human hepatocytes, 1, 10 and 100 µM, 10 min, n = 3 donors
Description: (§1) Sandwich-cultured human hepatocytes were obtained from Celsis/IVT (Baltimore, MD) or Life Technologies (Durham, NC). Donors were male (n = 3) and female (n = 1) between the ages of 31 and 62 years old. Hepatic uptake, biliary excretion and in vitro biliary clearance (Clb) were determined using the B-CLEAR® hepatocyte sandwich culture model as described by Liu et al., 1999 [34]. In this system, hepatocytes form functional bile canalicular networks while maintaining the expression and function of key uptake and efflux transporters. The canalicular system of bile pockets remains separate from the cellular culture media due to tight junctions between cells. The integrity of these tight junctions is maintained in the presence of calcium (Plus (+) buffer) while in the absence of calcium (Minus (−) buffer), these tight junctions open and release the contents of the canalicular network into the media.
Incubation solutions containing ERA (1, 10 and 100 µM) were prepared in Plus (+) buffer. Cell culture medium was removed from the wells and the cells were washed twice with Plus (+) or Minus (−) buffer. The wash solutions were then removed and replaced with fresh Plus (+) or Minus (−) buffer. The cells were conditioned for 10 min at 37°C. After the 10 min exposure, the buffer solutions were removed and replaced with the incubation solutions and incubated for 10 min at 37°C. Following 10 min incubation, the incubation solutions were removed and the cells were then washed three times with ice-cold Plus (+) Buffer. The plates were frozen at −80°C until processed for bioanalysis.
Study samples were stored in their original 24-well plates at −80°C until prepared for analysis. A volume of 500 µL of cell lysis solution (70∶30 methanol:water) containing 25 nM internal standard was added to each well and mixed for 20 min of mixing. […] Prepared samples were filtered and analyzed by LC-MS/MS using a Shimadzu binary HPLC system (Columbia, MD) and tandem mass spectrometry using Thermo Electron TSQ® Quantum Discovery MAX™ (Waltham, MA) with an Ion Max ESI source operating in negative ion electrospray ionization mode. Results for unknowns and QCs were calculated using a standard curve based on an internal standard processing method.
Data calculations were performed using Microsoft Excel, 2010 with all values reported as mean ± standard deviation (SD). […] All mass values were normalized to mg protein by taking the average protein mass in the taurocholate plate determined using a BCA protein assay (Pierce Biotechnology, Rockford, IL). Cellular accumulation determined in Minus (−) buffer (Accumulation Minus (−) Buffer) represents the total mass of analyte inside the hepatocyte at the end of the incubation time period. […]

[2] = test system: sandwich-cultured human hepatocytes; test: Effect of ERAs on endogenous glycocholic acid (GCA) distribution in sandwich-cultured human hepatocytes; type: cell-based; conditions: 24 h, mean ± standard error, n=3 human livers
Description: as §1
Incubation solutions containing ERA (1, 10 and 100 µM) were prepared in cell culture medium. On the sixth day of culturing of the sandwich-cultured hepatocytes, cell culture medium was removed from the wells and incubation solutions containing the test ERAs were added to the cells. The cells were incubated with ERA solution for 24 h at 37°C. After the exposure, the incubation solutions were removed and the cells were rinsed with Plus (+) or Minus (−) buffer. The buffer solutions were then removed and the cells were incubated with fresh Plus (+) or Minus (−) buffer for 5 min at 37°C. Following this 5 minute incubation, the buffer solutions were collected and any remaining buffers were removed. The cells were then washed three times with ice-cold Plus (+) buffer and the plates were frozen at −80°C until processed for bioanalysis.
Study samples were stored in their original 24-well plates at −80°C until prepared for analysis. A volume of 500 µL of cell lysis solution (70∶30 methanol:water) containing 25 nM internal standard was added to each well and mixed for 20 min of mixing. The volume in each well was then transferred to a 96-well filter plate stacked on a Greiner deep well collection plate. The filter plate/collection plate was then centrifuged at 2000 rcf for 5 min. The filtrate was then evaporated to dryness under nitrogen. Samples were reconstituted in 200 µL of sample diluent (60∶40 methanol:10 mM ammonium acetate, native pH), sealed, and placed on a plate shaker for 15 min. These samples were then transferred to a Whatman 96-well 0.45 µm PVDF filter plate stacked on a Costar 3956 plate (HPLC injection plate), centrifuged at 2000 rcf for 2–3 min, and sealed with a silicon cap mat prior to LC-MS/MS analysis. d8-TCA standard spiking solutions were prepared in 50∶50 methanol:water. For a given lysate standard or control, 10 µL was added to each well of a previously frozen analytical plate. Standards representing 0.5–100 pmoles/well and QC’s at the LLQ and ULQ were prepared. These lysate standards and controls were then further processed as described above for unknown study samples. Prepared samples were filtered and analyzed by LC-MS/MS using a Shimadzu binary HPLC system (Columbia, MD) and tandem mass spectrometry using Thermo Electron TSQ® Quantum Discovery MAX™ (Waltham, MA) with an Ion Max ESI source operating in negative ion electrospray ionization mode. Results for unknowns and QCs were calculated using a standard curve based on an internal standard processing method.
Statistical comparisons across ERA treatments were performed using analysis of variance (ANOVA) with Fisher’s PLSD post hoc analysis (Statview 5.0, SAS Institute, Cary NC); statistical significance was considered to be P<0.05. All mass values were normalized to mg protein by taking the average protein mass in the taurocholate plate determined using a BCA protein assay (Pierce Biotechnology, Rockford, IL). […]

BSEP = target: T1, BSEP (Homo sapiens, UniProt O95342); test: BSEP inhibition, taurocholate transport in Sf9 membrane vesicles; type: biochemical; conditions: taurocholate 2 µM, mean ± SD of 3 independent studies in duplicate, tested 0.14–100 µM
T1 construct: purchased Solvo Biotechnology, Budaors, Hungary; host or cells: Sf9 insect cells (membrane vesicles)
Description: Chinese Hamster Ovary (CHO) cells were obtained from Professor B. Stieger’s laboratory at University of Zurich, Zurich, Switzerland. Madin-Darby Canine Kidney strain II (MDCKII) cells were obtained from Nederlands Kanker Instituut (NKI), Amsterdam, Netherlands. NTCP-CHO cells, BSEP and MRP2 membrane vesicles were developed and validated at Solvo Biotechnology, Budaors, Hungary.
BSEP and MRP2 inhibition was studied in membrane vesicles isolated from sf9 insect cells overexpressing the respective transporters. Vesicular transport inhibition assays used test compounds incubated with membrane vesicle preparations (total protein: 50 µg/well) and probe substrates, taurocholate (2 µM) for BSEP or Estradiol-17-beta-glucuronide (0.2 µM) for MRP2, in the absence or presence of ATP. Reaction mixtures were preincubated for 15 min at 37°C. Reactions were started by the addition of 25 µL of 12 mM MgATP or assay buffer (for background controls), preincubated separately. Reactions were stopped after 5 min by the addition of 200 µL of ice-cold washing buffer and immediate filtration via glass fiber filters mounted to a 96-well plate (filter plate). The filters were washed, dried and the amount of substrate inside the filtered vesicles determined by liquid scintillation. Cyclosporin A (20 µM) or benzbromarone (100 µM), for BSEP or MRP2, respectively, were used as positive control inhibitors. Control membranes lacking transporter expression were used as negative control.
All assays were performed in duplicate. IC50 was defined as the test article concentration needed to inhibit the maximal transporter specific accumulation by 50%. IC50 values were calculated using non-linear fitting of % inhibition versus concentration to a sigmoidal curve with a variable Hill Coefficient using GraphPad Prism 5 (GraphPad Software Inc., San Diego, CA).

T1 sequence (O95342 whole entry): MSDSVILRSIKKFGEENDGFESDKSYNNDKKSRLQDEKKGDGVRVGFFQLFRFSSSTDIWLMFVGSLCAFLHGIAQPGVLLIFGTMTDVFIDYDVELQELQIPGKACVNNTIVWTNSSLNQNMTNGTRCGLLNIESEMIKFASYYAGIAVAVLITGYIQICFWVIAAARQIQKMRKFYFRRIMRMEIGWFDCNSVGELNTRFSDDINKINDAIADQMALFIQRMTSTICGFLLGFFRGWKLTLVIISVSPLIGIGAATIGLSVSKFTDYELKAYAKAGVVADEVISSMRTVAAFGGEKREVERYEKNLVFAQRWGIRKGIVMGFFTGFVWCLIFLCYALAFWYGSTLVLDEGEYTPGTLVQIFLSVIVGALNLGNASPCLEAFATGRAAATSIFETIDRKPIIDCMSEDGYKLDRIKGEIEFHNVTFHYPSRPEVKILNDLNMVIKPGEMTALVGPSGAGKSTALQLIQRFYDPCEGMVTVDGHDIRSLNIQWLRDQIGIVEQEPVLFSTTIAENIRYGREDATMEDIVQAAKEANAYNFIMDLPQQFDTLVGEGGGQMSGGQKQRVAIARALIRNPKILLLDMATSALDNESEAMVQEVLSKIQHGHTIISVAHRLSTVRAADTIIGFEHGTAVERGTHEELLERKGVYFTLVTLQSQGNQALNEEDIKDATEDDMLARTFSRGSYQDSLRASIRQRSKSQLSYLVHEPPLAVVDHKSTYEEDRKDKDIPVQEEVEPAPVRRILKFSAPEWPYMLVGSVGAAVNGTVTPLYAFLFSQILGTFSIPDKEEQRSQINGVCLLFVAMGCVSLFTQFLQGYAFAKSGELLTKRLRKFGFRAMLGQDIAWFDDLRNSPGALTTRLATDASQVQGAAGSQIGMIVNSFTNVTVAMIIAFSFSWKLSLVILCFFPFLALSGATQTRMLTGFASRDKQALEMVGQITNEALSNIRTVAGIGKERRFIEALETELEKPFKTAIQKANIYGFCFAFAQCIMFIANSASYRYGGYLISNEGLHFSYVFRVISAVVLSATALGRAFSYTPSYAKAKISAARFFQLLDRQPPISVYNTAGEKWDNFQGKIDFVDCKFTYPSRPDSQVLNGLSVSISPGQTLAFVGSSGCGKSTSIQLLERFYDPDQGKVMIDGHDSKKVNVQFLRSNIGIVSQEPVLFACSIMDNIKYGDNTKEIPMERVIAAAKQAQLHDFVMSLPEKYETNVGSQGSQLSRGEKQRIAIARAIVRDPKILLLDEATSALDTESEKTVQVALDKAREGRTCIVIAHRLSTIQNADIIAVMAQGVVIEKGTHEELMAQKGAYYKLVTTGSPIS

| SMILES | hepatocyte accumulation relative to the extracellular test concentration [1] | GCA BEI (% Control) ([2]; 1 µM) | GCA Cellular Accumulation (% Control) ([2]; 1 µM) | GCA Medium Concentration (% Control) ([2]; 1 µM) | GCA Total Accumulation (% Control) ([2]; 1 µM) | GCA BEI (% Control) ([2]; 10 µM) | GCA Cellular Accumulation (% Control) ([2]; 10 µM) | GCA Medium Concentration (% Control) ([2]; 10 µM) | GCA Total Accumulation (% Control) ([2]; 10 µM) | GCA BEI (% Control) ([2]; 100 µM) | GCA Cellular Accumulation (% Control) ([2]; 100 µM) | GCA Medium Concentration (% Control) ([2]; 100 µM) | GCA Total Accumulation (% Control) ([2]; 100 µM) | IC50 (BSEP) | hepatocyte accumulation relative to the extracellular test concentration ([1]; listed as Macitentan) |
| --- | --- | --- | --- | --- | --- | --- | --- | --- | --- | --- | --- | --- | --- | --- | --- |
| Cc1cc2c(cc1CC(=O)c1sccc1S(=O)(=O)Nc1onc(C)c1Cl)OCO2 [sitaxsentan] | ~40 x | 100.0 ± 18.3 % Control | 90.9 ± 6.5 % Control | 104.0 ± 8.1 % Control | 98.6 ± 16.1 % Control | 84.2 ± 6.0 % Control | 69.8 ± 11.1 % Control | 92.8 ± 3.8 % Control | 60.3 ± 7.2 % Control | 61.7 ± 12.2 % Control | 18.6 ± 6.9 % Control | 75.0 ± 3.5 % Control | 14.4 ± 5.4 % Control |  |  |
| CCCNS(=O)(=O)Nc1ncnc(OCCOc2ncc(Br)cn2)c1-c1ccc(Br)cc1 [macitentan] | > 100 x | 96.9 ± 17.6 % Control | 81.7 ± 10.7 % Control | 101.0 ± 3.3 % Control | 84.6 ± 12.6 % Control | 54.9 ± 10.3 % Control | 62.7 ± 10.5 % Control | 88.9 ± 1.8 % Control | 46.5 ± 8.3 % Control | 39.4 ± 12.3 % Control | 38.1 ± 13.6 % Control | 52.6 ± 1.2 % Control | 24.7 ± 7.8 % Control | 12 µM and 11.9 µM | ~100 x |
| COC(c1ccccc1)(c1ccccc1)[C@H](Oc1nc(C)cc(C)n1)C(=O)O [ambrisentan] |  | 90.3 ± 13.5 % Control | 93.0 ± 9.3 % Control | 101.0 ± 3.5 % Control | 87.2 ± 10.8 % Control | 75.4 ± 8.6 % Control | 88.2 ± 15.5 % Control | 91.3 ± 7.5 % Control | 73.0 ± 8.4 % Control | 65.9 ± 6.8 % Control | 48.8 ± 10.8 % Control | 95.7 ± 6.7 % Control | 39.1 ± 11.9 % Control | > 100 µM |  |
| COc1ccccc1Oc1c(NS(=O)(=O)c2ccc(C(C)(C)C)cc2)nc(-c2ncccn2)nc1OCCO [bosentan] | ~20 x | 85.9 ± 12.6 % Control | 78.4 ± 14.5 % Control | 99.6 ± 2.1 % Control | 71.9 ± 12.9 % Control | 32.3 ± 30.1 % Control | 55.1 ± 14.4 % Control | 85.5 ± 6.3 % Control | 35.9 ± 5.3 % Control | 35.4 ± 13.9 % Control | 25.6 ± 8.4 % Control | 77.1 ± 10.1 % Control | 17.4 ± 6.1 % Control | 42 µM and 42.1 µM |  |
